Measured values from US12252472B1, “Barbituric acid derivatives, their preparation and use thereof as leukocyte transmigration inhibitors and for treating inflammatory diseases, autoimmune diseases and cancer” (BAR-ILAN UNIVERSITY, priority 2017, dated 2025).

What was measured:
[1] = system: C57BL/6J mice; assay: Acute toxicology in naive mice (blood counts, biochemical tests, histology); format: in vivo, mouse
Description: 1% methyl cellulose in DDW solution was prepared by adding 0.5 g methyl cellulose into 50 ml of DDW and stirring the solution at the lowest possible speed (without making bubbles) overnight at room temperature. Formula 2 stock solution was prepared in concertation of 20 mg/ml at room temperature following shown below order of actions: • 1. 30 mg of the compound of Formula 2 was placed in the glass vial together with small magnet. • 2. 1.5 ml of 1% methylcellulose was added by circular (swirled) movement very slow. The entire surface of the vial was gently covered by the solvent and powder was not allowed to float above the liquid. • 3. The resulting suspension was stirred at the lowest possible speed up to 48 hours at room temperature. • 4. Intermediate Formula 2 stock solution at 10 mg/ml concentration was prepared by diluting 20 mg/ml stock solution 1:1 (v/v) with equal amount of DDW. DDW was added to the Formula 2 stock solution. The obtained suspension was stirred at the lowest possible speed for another hour at room temperature. • 5. Formula 2 working solution at 3 mg/ml was prepared by diluting intermediate stock solution (v/v) with DDW accordingly. The working suspension of Formula 2 was stirred at the low speed (˜80-100 rpm) for 30 minutes to 1 hour prior to use in animal experiments.
Eight experimental groups with 5 female 6-7 weeks old C57BL/6J mice each and one control group non treated (naïve) mice were used for the experiment. Mice were administered with daily application of the working suspension of the compound of Formula 2, prepared as described hereinabove, at 5, 10 and 15 mg/kg by intraperitoneal injection (IP) or at 10, 20 and 30 mg/kg by oral gavage (PO). […] Mice from all groups were euthanized with isoflurane 24 hours post last dose administration. Sampling for whole blood counts (WBC) and white blood differentiation: 200 μl of whole blood were collected into EDTA tubes (Greiner MiniCollect K3EDTA tubes). For comprehensive metabolic panel the rest of the whole blood (300-400 μl) was collected for the serum preparation. All blood tests were conducted in American Medical Labs, Herzeliah, Israel. Liver, spleen, lungs, heart and kidneys were collected from each mouse placed to vials with 4% buffered formalin following paraffin embedding and sectioning. Sections from each organ of each animal were stained with H&E and histological evaluation of the tissue was performed.

[2] = system: HUVECs intercellular junctions; assay: Phenotypic changes at endothelial junctions (MesenFlow system); format: cell-based, human
Source text: This manifestation was termed “Fluttering”. Fluttering was characterized by a rapid fluctuating movement at the intercellular junctions of adjacent HUVECs, and predominantly within tri-cellular corners. This was characterized by a rapid change in phase at the cellular edges consistent with a physical movement that was associated with no leukocytes adhesion or migration within these regions (FIG. 27). […] This observation is therefore representative of a phenotype that is indicative of a disruption in leukocyte transmigration.

[3] = 5, 10, 15 mg/kg IP or 10, 20, 30 mg/kg PO, daily

Compound: COC(=O)c1ccc(COc2c(C=C3C(=O)NC(=O)NC3=O)cccc2C(C)(C)C)cc1 [Formula 2, methyl 4-((2-(tert-butyl)-6-((2,4,6-trioxotetrahydropyrimidin-5(2H)-ylidene)methyl)phenoxy)methyl) benzoate]
- microstructure of lungs, heart, liver, spleen and kidney tissues ([1]; 3 doses IP): no effect
- microstructure of lungs, heart, liver, spleen and kidney tissues ([1]; 3 doses PO): no effect
- blood levels of calcium, phosphorus, sodium, potassium, chloride and hemolytic index ([1]; 3 doses PO or 3 doses IP, n=5): no effect
- blood levels of creatinine, urea, total protein, albumin, globulin, glucose ([1]; 3 doses PO or 3 doses IP, n=5): no effect
- blood levels of total billirubin, alkaline phosphatase, SGOT, SGPT and cholesterol ([1]; 3 doses PO or 3 doses IP, n=5): no effect
- different subtypes of red blood cells, platelets and hematocrit ([1]; 3 doses PO or 3 doses IP, n=5): no effect
- different subtypes of white blood cells ([1]; 3 doses PO or 3 doses IP, n=5): no effect
- tested metabolic values [1, 3]: in normal range
- whole blood counts and white cells differentiation [1, 3]: no significant changes
- tissues morphology, microscopic evaluation ([1]; liver, spleen, lungs, heart, kidneys, IP and PO): no changes
- junctional integrity ([2]; HUVECs co-culture): maintained
- Fluttering at HUVEC intercellular junctions ([2]; all HUVECs co-culture experiments): observed
